Where two headings read alike, the source gives them in different places.
Tests used:
[1] = test system: coronary atherosclerosis; details: 2 years; rosuvastatin 40 mg daily, atorvastatin 80 mg daily; cited from earlier work
[2] = test system: ABCA1; details: cited from earlier work
[3] = test system: coronary atherosclerosis; details: cited from earlier work
[4] = test system: ApoA-I mRNA; assay: ApoA-I mRNA quantitation in HepG2 cells (real-time PCR); format: cell-based; design: key: Active: An active compound is one that causes a >15% increase in ApoA-I mRNA at a concentration less than or equal to 100 uM; details: concentration less than or equal to 100 uM, fold induction relative to DMSO control
In short: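 HepG2 cells were lysed after compound treatment and mRNA captured on oligo plates, then quantified by one-step real-time RT-PCR with primer-probe mixes. Ct values gave fold induction relative to the matching DMSO control. Active means >15% increase in ApoA-I mRNA at ≤100 uM.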

[5] = test system: coronary atherosclerosis; details: 2 years; pravastatin 40 mg daily, atorvastatin 80 mg daily; cited from earlier work

Compound: CC(C)c1nc(N(C)S(C)(=O)=O)nc(-c2ccc(F)cc2)c1/C=C/[C@@H](O)C[C@@H](O)CC(=O)O [rosuvastatin, (3R,5S,6E)-7-[4-(4-fluorophenyl)-2-(N-methylmethanesulfonamido)-6-(propan-2-yl)pyrimidin-5-yl]-3,5-dihydroxyhept-6-enoic acid]
- median change in PAV [1]: −1.22%
- effect on expression of ABCA1 [2]: increase expression of ABCA1
- median change PAV ([3]; 2 years, rosuvastatin 40 mg daily, overall): −0.79%
- median decrease in PAV from baseline ([3]; 2 years, rosuvastatin 40 mg daily, subgroup with average HDL-C during treatment less than 40 mg/dL): −1.3%
- PAV decrease ([3]; FIG. 8, 40 mg of rosuvastatin without RVX-208, after 104 weeks): 1.30%

Compound: O=C(O)C[C@H](O)C[C@H](O)/C=C/c1c(C2CC2)nc2ccccc2c1-c1ccc(F)cc1 [pitavastatin, (3R,5S,6E)-7-[2-cyclopropyl-4-(4-fluorophenyl)quinolin-3-yl]-3,5-dihydroxyhept-6-enoic acid]
- effect on expression of ABCA1 [2]: increase expression of ABCA1

Compound: COc1cc(OC)c2c(=O)[nH]c(-c3ccc(OC)c(CN4CCOCC4)c3)nc2c1 [5,7-dimethoxy-2-(4-methoxy-3-(morpholinomethyl)phenyl)quinazolin-4(3H)-one]
- Effect on ApoA-I mRNA levels [4]: Active

Compound: CCOc1nc(-c2cc(C)c(O)c(C)c2)nc2cc(OC)cc(OC)c12 [4-(4-ethoxy-5,7-dimethoxyquinazolin-2-yl)-2,6-dimethylphenol]
- Effect on ApoA-I mRNA levels [4]: Inactive

Compound: COc1cc(OC)c2c(=O)[nH]c(-c3ccc4c(c3)OCCO4)nc2c1 [2-(2,3-dihydrobenzo[b][1,4]dioxin-6-yl)-5,7-dimethoxyquinazolin-4(3H)-one]
- Effect on ApoA-I mRNA levels [4]: Active

Compound: COc1cc(OC)c2c(=O)[nH]c(-c3cc(C)c(/N=C/N(C)C)c(C)c3)nc2c1 [(E)-N′-(4-(5,7-dimethoxy-4-oxo-3,4-dihydroquinazolin-2-yl)-2,6-dimethylphenyl)-N,N-dimethylformimidamide]
- Effect on ApoA-I mRNA levels [4]: Active

Compound: CC(C)c1c(C(=O)Nc2ccccc2)c(-c2ccccc2)c(-c2ccc(F)cc2)n1CC[C@@H](O)C[C@@H](O)CC(=O)O [atorvastatin]
- median change in PAV [1]: −0.99%
- effect on expression of ABCA1 [2]: inhibit ABCA1 expression
- median change in PAV [5]: +0.2%

Compound: COc1cc(OC)c2c(=O)[nH]c(-c3ccc(OCC(=O)O)c(OC)c3)nc2c1 [2-(4-(5,7-dimethoxy-4-oxo-3,4-dihydroquinazolin-2-yl)-2-methoxyphenoxy)acetic acid]
- Effect on ApoA-I mRNA levels [4]: Active

Compound: COc1ccc(S(=O)(=O)NCCOc2c(C)cc(-c3nc4cc(OC)cc(OC)c4c(=O)[nH]3)cc2C)cc1 [N-(2-(4-(5,7-dimethoxy-4-oxo-3,4-dihydroquinazolin-2-yl)-2,6-dimethylphenoxy)ethyl)-4-methoxybenzenesulfonamide]
- Effect on ApoA-I mRNA levels [4]: Active

From US20160346291A1, “COMPOSITIONS AND THERAPEUTIC METHODS FOR ACCELERATED PLAQUE REGRESSION” (Resverlogix Corp, priority 2013, published 2016)
